# According to patent US20200390899A1, “AMINOBENZAZEPINE COMPOUNDS, IMMUNOCONJUGATES, AND USES THEREOF” (BOLT BIOTHERAPEUTICS, INC., priority 2019, published 2020):
# Like-named read-outs stand apart in the source and are kept apart here.
# Tests used:
# human TLR7 = target: T1, human TLR7 (Homo sapiens, UniProt Q9NYK1); assay: HEK293 NFKB reporter assay, human TLR7; assay type: cell-based; details: HEK293 reporter cells expressing human TLR7, read-out: HEK293 hTLR7 EC50
# T1 construct: host or cells: HEK293 reporter cells
# T1 sequence (Q9NYK1 27-1049): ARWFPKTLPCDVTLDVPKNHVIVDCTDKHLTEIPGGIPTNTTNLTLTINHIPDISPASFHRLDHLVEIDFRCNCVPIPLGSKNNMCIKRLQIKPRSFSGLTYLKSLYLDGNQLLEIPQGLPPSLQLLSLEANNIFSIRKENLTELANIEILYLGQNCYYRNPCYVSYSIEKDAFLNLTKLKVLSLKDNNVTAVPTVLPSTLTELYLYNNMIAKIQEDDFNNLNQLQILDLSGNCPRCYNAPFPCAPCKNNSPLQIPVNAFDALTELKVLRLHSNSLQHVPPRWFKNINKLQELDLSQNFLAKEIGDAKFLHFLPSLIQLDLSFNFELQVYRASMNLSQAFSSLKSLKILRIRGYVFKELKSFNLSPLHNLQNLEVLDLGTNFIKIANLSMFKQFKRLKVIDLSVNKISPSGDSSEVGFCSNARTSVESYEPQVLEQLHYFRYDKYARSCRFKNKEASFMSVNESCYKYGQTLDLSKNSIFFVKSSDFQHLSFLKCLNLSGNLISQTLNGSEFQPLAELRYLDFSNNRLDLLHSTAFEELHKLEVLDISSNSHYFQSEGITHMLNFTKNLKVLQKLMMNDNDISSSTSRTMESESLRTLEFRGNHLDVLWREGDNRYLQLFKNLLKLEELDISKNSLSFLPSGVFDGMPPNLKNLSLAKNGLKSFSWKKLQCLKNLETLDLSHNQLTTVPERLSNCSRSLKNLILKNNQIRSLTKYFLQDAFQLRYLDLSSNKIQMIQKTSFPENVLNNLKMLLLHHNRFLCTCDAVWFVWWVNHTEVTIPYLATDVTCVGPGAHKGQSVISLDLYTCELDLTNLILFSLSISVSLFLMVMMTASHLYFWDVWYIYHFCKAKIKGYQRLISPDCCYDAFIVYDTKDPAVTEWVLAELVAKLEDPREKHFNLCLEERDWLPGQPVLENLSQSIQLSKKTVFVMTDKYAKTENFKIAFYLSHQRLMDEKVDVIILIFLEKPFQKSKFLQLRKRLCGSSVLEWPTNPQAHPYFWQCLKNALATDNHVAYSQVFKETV
# Procedure: (§1) Each compound was synthesized and purified by the methods in the Examples provided herein, characterized by mass spectrometry, and shown to have the mass indicated. Activity against HEK293 NFKB reporter cells expressing human TLR7 or human TLR8 was measured according to Example 68.
# (§2) HEK293 reporter cells expressing human TLR7 or human TLR8 were purchased from Invivogen and vendor protocols were followed for cellular propagation and experimentation. Briefly, cells were grown to 80-85% confluence at 5% CO2 in DMEM supplemented with 10% FBS, Zeocin, and Blasticidin. Cells were then seeded in 96-well flat plates at 4×10^4cells/well with substrate containing HEK detection medium and immunostimulatory molecules. Activity was measured using a plate reader at 620-655 nm wavelength.
# human TLR8 = target: T2, human TLR8 (Homo sapiens, UniProt Q9NR97); assay: HEK293 NFKB reporter assay, human TLR8; assay type: cell-based; details: HEK293 reporter cells expressing human TLR8, read-out: HEK293 hTLR8 EC50
# T2 construct: host or cells: HEK293 reporter cells
# T2 sequence (Q9NR97 27-1041): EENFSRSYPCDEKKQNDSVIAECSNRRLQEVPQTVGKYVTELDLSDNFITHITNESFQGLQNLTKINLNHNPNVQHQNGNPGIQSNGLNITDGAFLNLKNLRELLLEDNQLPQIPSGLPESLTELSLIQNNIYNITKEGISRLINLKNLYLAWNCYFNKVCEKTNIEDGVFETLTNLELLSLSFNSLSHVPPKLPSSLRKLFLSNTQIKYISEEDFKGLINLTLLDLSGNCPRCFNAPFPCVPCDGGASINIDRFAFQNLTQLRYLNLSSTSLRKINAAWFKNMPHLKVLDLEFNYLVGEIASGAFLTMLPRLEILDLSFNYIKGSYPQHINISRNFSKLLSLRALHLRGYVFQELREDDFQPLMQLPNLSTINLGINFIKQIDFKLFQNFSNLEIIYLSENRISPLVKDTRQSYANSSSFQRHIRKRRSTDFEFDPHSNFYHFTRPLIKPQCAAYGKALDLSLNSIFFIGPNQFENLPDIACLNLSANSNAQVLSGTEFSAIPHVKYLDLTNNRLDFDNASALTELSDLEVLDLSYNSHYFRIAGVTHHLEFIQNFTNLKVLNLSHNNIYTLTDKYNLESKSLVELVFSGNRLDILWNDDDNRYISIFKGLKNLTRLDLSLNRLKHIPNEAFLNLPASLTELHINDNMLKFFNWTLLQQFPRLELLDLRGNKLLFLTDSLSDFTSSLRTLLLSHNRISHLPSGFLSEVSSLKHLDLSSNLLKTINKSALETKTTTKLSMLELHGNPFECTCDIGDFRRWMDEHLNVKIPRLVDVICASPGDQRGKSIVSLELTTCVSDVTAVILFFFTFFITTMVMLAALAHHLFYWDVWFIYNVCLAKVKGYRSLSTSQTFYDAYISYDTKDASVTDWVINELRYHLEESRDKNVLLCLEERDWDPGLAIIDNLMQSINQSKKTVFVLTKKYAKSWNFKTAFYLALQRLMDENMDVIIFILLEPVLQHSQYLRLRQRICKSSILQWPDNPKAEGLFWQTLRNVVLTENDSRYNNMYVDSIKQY
# Procedure: as §1, §2
Compound,EC50 (human TLR7; Table 1a),EC50 (human TLR8; Table 1a),EC50 (human TLR8; Table 1c),also measured
"CCCN(CCCNC(=O)OC(C)(C)C)C(=O)C1=Cc2ccc(-c3cccc(S(=O)(=O)N4CC(CO)C4)c3)cc2N=C(N)C1 [Bz-1, tert-butyl N-[3-[[2-amino-8-[3-[3-(hydroxymethyl)azetidin-1-yl]sulfonylphenyl]-3H-1-benzazepine-4-carbonyl]-propyl-amino]propyl]carbamate]",0.571 µM,0.106 µM,–,–
CCCN(CCC)C(=O)C1=Cc2ccc(-c3ccc(CN)c(S(=O)(=O)N4CC(CO)C4)c3)cc2N=C(N)C1 [Bz-2],> 9 µM,9.76 µM,–,–
"CCCN(CCCN(C)C(=O)OC(C)(C)C)C(=O)C1=Cc2ccc(-c3cccc(S(=O)(=O)N4CC(CO)C4)c3)cc2N=C(N)C1 [Bz-3, tert-butyl (3-(2-amino-8-(3-((3-(hydroxymethyl)azetidin-1-yl)sulfonyl)phenyl)-N-propyl-3H-benzo[b]azepine-4-carboxamido)propyl)(methyl)carbamate]",0.545 µM,4.31 µM,–,–
CCCN(CCCNC(=O)OC(C)(C)C)C(=O)C1=Cc2ccc(-c3ccc(C(=O)N4CCCC4)cc3)cc2N=C(N)C1 [Bz-4],1.48 µM,1.68 µM,–,–
"CCCN(CCC)C(=O)C1=Cc2c(CCCCNC(=O)OC(C)(C)C)cc(-c3cccc(S(=O)(=O)N4CC(CO)C4)c3)cc2N=C(N)C1 [Bz-5, tert-butyl (4-(2-amino-4-(dipropylcarbamoyl)-8-(3-((3-(hydroxymethyl)azetidin-1-yl)sulfonyl)phenyl)-3H-benzo[b]azepin-6-yl)butyl)carbamate]",0.155 µM,0.256 µM,–,–
"CCCN(CCC)C(=O)C1=Cc2ccc(-c3cccc(S(=O)(=O)N4CC(CNC(=O)OC(C)(C)C)C4)c3)cc2N=C(N)C1 [Bz-6, tert-butyl ((1-((3-(2-amino-4-(dipropylcarbamoyl)-3H-benzo[b]azepin-8-yl)phenyl)sulfonyl)azetidin-3-yl)methyl)carbamate]",> 9 µM,0.265 µM,–,–
CCCN(CCC)C(=O)C1=Cc2ccc(C(=O)Nc3cncc(CNC(=O)OC(C)(C)C)c3)cc2N=C(N)C1 [Bz-7],> 9 µM,0.00428 µM,–,–
CCCN(CCCN(C)C(=O)OC(C)(C)C)C(=O)C1=Cc2ccc(-c3ccc(C(=O)N4CCCC4)cc3)cc2N=C(N)C1 [Bz-8],3.37 µM,> 9 µM,–,–
"CCCN(CCCCCNC(=O)OC(C)(C)C)C(=O)C1=Cc2ccc(-c3cccc(S(=O)(=O)N4CC(CO)C4)c3)cc2N=C(N)C1 [Bz-9, tert-butyl N-[5-[[2-amino-8-[3-[3-(hydroxymethyl)azetidin-1-yl]sulfonylphenyl]-3H-1-benzazepine-4-carbonyl]-propyl-amino]pentyl]carbamate]",8.65 µM,0.629 µM,–,–
"CCCN(CCNC(=O)OC(C)(C)C)C(=O)C1=Cc2ccc(-c3cccc(S(=O)(=O)N4CC(CO)C4)c3)cc2N=C(N)C1 [Bz-10, tert-butyl (2-(2-amino-8-(3-((3-(hydroxymethyl)azetidin-1-yl)sulfonyl)phenyl)-N-propyl-3H-benzo[b]azepine-4-carboxamido)ethyl)carbamate]",> 9 µM,> 9 µM,–,–
"CCCN(CCCNC(=O)NC(C)(C)C)C(=O)C1=Cc2ccc(-c3cccc(S(=O)(=O)N4CC(CO)C4)c3)cc2N=C(N)C1 [Bz-11, 2-amino-N-[3-(tert-butylcarbamoylamino)propyl]-8-[3-[3-(hydroxymethyl)azetidin-1-yl]sulfonylphenyl]-N-propyl-3H-1-benzazepine-4-carboxamide]",7.84 µM,1.39 µM,–,–
"CCCN(CCCNC(=O)Nc1cccc(C#N)c1)C(=O)C1=Cc2ccc(-c3cccc(S(=O)(=O)N4CC(CO)C4)c3)cc2N=C(N)C1 [Bz-12, 2-amino-N-[3-[(3-cyanophenyl)carbamoylamino]propyl]-8-[3-[3-(hydroxymethyl)azetidin-1-yl]sulfonylphenyl]-N-propyl-3H-1-benzazepine-4-carboxamide]",2.49 µM,2.38 µM,–,–
"CCCN(Cc1ccc(CN2CCN(C(=O)OC(C)(C)C)CC2)cc1)C(=O)C1=Cc2ccc(-c3cccc(S(=O)(=O)N4CC(CO)C4)c3)cc2N=C(N)C1 [Bz-30, tert-butyl 4-[[4-[[[2-amino-8-[3-[3-(hydroxymethyl)azetidin-1-yl]sulfonylphenyl]-3H-1-benzazepine-4-carbonyl]-propyl-amino]methyl]phenyl]methyl]piperazine-1-carboxylate]",–,–,–,EC50 (human TLR7; Table 1b): > 9 µM
CCCN(Cc1ccc(CN2CCN(C(=O)OC(C)(C)C)CC2)cc1)C(=O)C1=Cc2ccc(-c3cccc(S(=O)(=O)N4CC(CO)C4)c3)cc2N=C(N)C1 [Bz-44],–,–,–,EC50 (human TLR7; Table 1c): ≥ 9 µM
CCCN(CCC)C(=O)C1=Cc2ccc(-c3c(C)n[nH]c3C)cc2N=C(N)C1 [Bz-45],–,–,0.345 µM,–
CCCN(CCC)C(=O)C1=Cc2ccc(-c3c(C)nn(S(=O)(=O)N4CC(CO)C4)c3C)cc2N=C(N)C1 [Bz-48],–,–,0.499 µM,–
CCCN(CCC)C(=O)C1=Cc2ccc(-c3cccc(S(=O)(=O)N4CC5(CNC5)C4)c3)cc2N=C(N)C1 [Bz-52],–,–,1.32 µM,–
CCCN(CCC)C(=O)C1=Cc2ccc(-c3cccc(S(=O)(=O)N4CC5(CCNC5)C4)c3)cc2N=C(N)C1 [Bz-53],–,–,0.249 µM,–
CCCN(CCC)C(=O)C1=Cc2ccc(-c3cccc(S(=O)(=O)N4CCC(N)CC4)c3)cc2N=C(N)C1 [Bz-54],–,–,0.198 µM,–
CCCN(CCC)C(=O)C1=Cc2ccc(-c3cccc(S(=O)(=O)N4[C@@H]5CNC[C@@H]54)c3)cc2N=C(N)C1 (stereo partly drawn) [Bz-56],–,–,0.111 µM,–
CCCN(CCC)C(=O)C1=Cc2ccc(-c3cccc(S(=O)(=O)N4CCC5(CCNC5)C4)c3)cc2N=C(N)C1 (stereo not drawn) [Bz-57],–,–,0.741 µM,–
CCCN(Cc1ccc(CN)cc1)C(=O)C1=Cc2ccccc2N=C(N)C1 [Bz-59],–,–,0.87 µM,–
CCCN(CCOC)C(=O)C1=Cc2ccc(-c3cccc(S(=O)(=O)N4CC(CO)C4)c3)cc2N=C(N)C1 [Bz-60],–,–,0.288 µM,–
CCCN(NCC)C(=O)C1=Cc2ccc(-c3cccc(S(=O)(=O)N4CC(CO)C4)c3)cc2N=C(N)C1 [Bz-71],–,–,2.75 µM,–
CCCNN(CC)C(=O)C1=Cc2ccc(-c3cccc(S(=O)(=O)N4CC(CO)C4)c3)cc2N=C(N)C1 [Bz-72],–,–,4.25 µM,–
CCCN(CCC)C(=O)C1=Cc2ccc(CCCCCN)cc2N=C(N)C1 [Bz-74],–,–,2.56 µM,–
CCCN(CCC(F)(F)F)C(=O)C1=Cc2ccc(C(=O)Nc3ccccc3)cc2N=C(N)C1 [Bz-75],–,–,0.246 µM,–
